ChEMBL document CHEMBL4145553, “Design, synthesis, and biological evaluation of novel amide and hydrazide based thioether analogs targeting Histone deacteylase (HDAC) enzymes” (Eur J Med Chem, 2018)

What was measured:
NCI-H322M = assay: Growth inhibition of human NCI-H322M cells at 10 uM incubated for 48 hrs by sulforhodamine B assay relative to control; format: functional; settings: values are per cent of control
PC-3 = assay: Growth inhibition of human PC3 cells at 10 uM incubated for 48 hrs by sulforhodamine B assay relative to control; format: functional; settings: PC-3, 48 h, values are per cent of control
A498 = assay: Growth inhibition of human A498 cells at 10 uM incubated for 48 hrs by sulforhodamine B assay relative to control; format: functional; settings: A498, 48 h, values are per cent of control
MOLT-4 = assay: Growth of human MOLT4 cells at 10 uM incubated for 48 hrs by sulforhodamine B assay relative to control; settings: MOLT-4, 48 h
MDA-MB-468 = assay: Growth inhibition of human MDA-MB-468 cells at 10 uM incubated for 48 hrs by sulforhodamine B assay relative to control; format: functional; settings: MDA-MB-468, 48 h, values are per cent of control
RXF 393 = assay: Growth inhibition of human RXF393 cells at 10 uM incubated for 48 hrs by sulforhodamine B assay relative to control; format: functional; settings: RXF 393, 48 h, values are per cent of control
OVCAR-5 = assay: Growth of human OVCAR5 cells at 10 uM incubated for 48 hrs by sulforhodamine B assay relative to control; settings: OVCAR-5, 48 h
NCI-H460 = assay: Growth inhibition of human NCI-H460 cells at 10 uM incubated for 48 hrs by sulforhodamine B assay relative to control; format: functional; settings: NCI-H460, 48 h, values are per cent of control
HL-60(TB) = assay: Growth inhibition of human HL-60(TB) cells at 10 uM incubated for 48 hrs by sulforhodamine B assay relative to control; format: functional; settings: HL-60, 48 h, values are per cent of control
NCI/ADR-RES = assay: Growth inhibition of human NCI/ADR-RES cells at 10 uM incubated for 48 hrs by sulforhodamine B assay relative to control; format: functional; settings: values are per cent of control
HOP-92 = assay: Growth inhibition of human HOP92 cells at 10 uM incubated for 48 hrs by sulforhodamine B assay relative to control; format: functional; settings: HOP-92, 48 h, values are per cent of control
SNB-19 = assay: Growth of human SNB19 cells at 10 uM incubated for 48 hrs by sulforhodamine B assay relative to control; settings: SNB-19, 48 h
KM12 = assay: Growth of human KM12 cells at 10 uM incubated for 48 hrs by sulforhodamine B assay relative to control; settings: KM12, 48 h
TK-10 = assay: Growth inhibition of human TK10 cells at 10 uM incubated for 48 hrs by sulforhodamine B assay relative to control; format: functional; settings: TK-10, 48 h, values are per cent of control
SNB-75 = assay: Growth of human SNB75 cells at 10 uM incubated for 48 hrs by sulforhodamine B assay relative to control; settings: SNB-75, 48 h
MCF7 = assay: Growth inhibition of human MCF7 cells at 10 uM incubated for 48 hrs by sulforhodamine B assay relative to control; format: functional; settings: MCF7, 48 h, values are per cent of control
UACC-62 = assay: Growth of human UACC62 cells at 10 uM incubated for 48 hrs by sulforhodamine B assay relative to control; settings: UACC-62, 48 h
SK-MEL-2 = assay: Growth of human SK-MEL-2 cells at 10 uM incubated for 48 hrs by sulforhodamine B assay relative to control; settings: SK-MEL-2, 48 h
OVCAR-3 = assay: Growth of human OVCAR3 cells at 10 uM incubated for 48 hrs by sulforhodamine B assay relative to control; settings: OVCAR-3, 48 h
NCI-H522 = assay: Growth of human NCI-H522 cells at 10 uM incubated for 48 hrs by sulforhodamine B assay relative to control; settings: NCI-H522, 48 h
Malme-3M = assay: Growth of human MALME-3M cells at 10 uM incubated for 48 hrs by sulforhodamine B assay relative to control
A549 = assay: Growth of human A549/ATCC cells at 10 uM incubated for 48 hrs by sulforhodamine B assay relative to control; settings: A549, 48 h
U-251 = assay: Growth of human U251 cells at 10 uM incubated for 48 hrs by sulforhodamine B assay relative to control; settings: U-251, 48 h
UACC-257 = assay: Growth of human UACC257 cells at 10 uM incubated for 48 hrs by sulforhodamine B assay relative to control; settings: UACC-257, 48 h
SK-MEL-28 = assay: Growth of human SK-MEL-28 cells at 10 uM incubated for 48 hrs by sulforhodamine B assay relative to control; settings: SK-MEL-28, 48 h
OVCAR-8 = assay: Growth of human OVCAR8 cells at 10 uM incubated for 48 hrs by sulforhodamine B assay relative to control; settings: OVCAR-8, 48 h
SF-268 = assay: Growth of human SF268 cells at 10 uM incubated for 48 hrs by sulforhodamine B assay relative to control; settings: SF-268, 48 h
HCT-15 = assay: Growth of human HCT15 cells at 10 uM incubated for 48 hrs by sulforhodamine B assay relative to control; settings: HCT-15, 48 h
M14 = assay: Growth of human M14 cells at 10 uM incubated for 48 hrs by sulforhodamine B assay relative to control; settings: M14, 48 h
SF-295 = assay: Growth of human SF295 cells at 10 uM incubated for 48 hrs by sulforhodamine B assay relative to control; settings: SF-295, 48 h
DU-145 = assay: Growth inhibition of human DU145 cells at 10 uM incubated for 48 hrs by sulforhodamine B assay relative to control; format: functional; settings: DU-145, 48 h, values are per cent of control
RPMI-8226 = assay: Growth of human RPMI8226 cells at 10 uM incubated for 48 hrs by sulforhodamine B assay relative to control; settings: RPMI-8226, 48 h
MDA-MB-435 = assay: Growth of human MDA-MB-435 cells at 10 uM incubated for 48 hrs by sulforhodamine B assay relative to control; settings: MDA-MB-435, 48 h

Row | SMILES | growth, % of control at 10 µM (NCI-H322M) [%] | growth, % of control at 10 µM (PC-3) [%] | growth, % of control at 10 µM (A498) [%] | growth, % of control at 10 µM (MOLT-4) [%] | growth, % of control at 10 µM (MDA-MB-468) [%] | growth, % of control at 10 µM (RXF 393) [%] | growth, % of control at 10 µM (OVCAR-5) [%] | growth, % of control at 10 µM (NCI-H460) [%] | growth, % of control at 10 µM (HL-60(TB)) [%] | growth, % of control at 10 µM (NCI/ADR-RES) [%] | growth, % of control at 10 µM (HOP-92) [%] | growth, % of control at 10 µM (SNB-19) [%] | growth, % of control at 10 µM (KM12) [%] | growth, % of control at 10 µM (TK-10) [%] | growth, % of control at 10 µM (SNB-75) [%] | growth, % of control at 10 µM (MCF7) [%] | growth, % of control at 10 µM (UACC-62) [%] | growth, % of control at 10 µM (SK-MEL-2) [%] | growth, % of control at 10 µM (OVCAR-3) [%] | growth, % of control at 10 µM (NCI-H522) [%] | further results
1 | CC(C)(C)S/C(Nc1ccccc1)=C(\C#N)C(=O)N/N=C\c1ccco1 | 102 | 90.7 | 87 | 88.6 | 95.8 | 105 | 101 | 102 | 63.6 | 100 | 82.3 | 96.9 | 104 | 103 | 82.2 | 92.3 | 93.5 | 103 | 106 | 71.1 | growth, % of control at 10 µM (Malme-3M): 104%; growth, % of control at 10 µM (A549): 79.6%; growth, % of control at 10 µM (U-251): 94.7%; growth, % of control at 10 µM (UACC-257): 83%; growth, % of control at 10 µM (SK-MEL-28): 106%; growth, % of control at 10 µM (OVCAR-8): 94.9%; growth, % of control at 10 µM (SF-268): 99.7%; growth, % of control at 10 µM (HCT-15): 99.2%; growth, % of control at 10 µM (M14): 105%; growth, % of control at 10 µM (SF-295): 102%; growth, % of control at 10 µM (DU-145): 109%; growth, % of control at 10 µM (RPMI-8226): 106%; growth, % of control at 10 µM (MDA-MB-435): 101%
2 | CCS/C(Nc1ccccc1)=C(\C#N)C(=O)N/N=C\c1ccc(Cl)cc1Cl | 70.9 | 31.5 | -2.1 | 18.3 | 19.6 | 2.63 | 72.5 | 8.05 | -31.4 | 10.8 | 29.2 | 19.6 | 28 | 56.7 | -6.89 | 19.3 | 26.6 | 28.3 | 1.46 | 1.02 | growth, % of control at 10 µM (Malme-3M): 38.1%; growth, % of control at 10 µM (A549): 38.3%; growth, % of control at 10 µM (U-251): 19.1%; growth, % of control at 10 µM (UACC-257): 51.9%; growth, % of control at 10 µM (SK-MEL-28): 60.5%; growth, % of control at 10 µM (OVCAR-8): 28.6%; growth, % of control at 10 µM (SF-268): 34%; growth, % of control at 10 µM (HCT-15): 19.9%; growth, % of control at 10 µM (M14): 21%; growth, % of control at 10 µM (SF-295): 17%; growth, % of control at 10 µM (DU-145): 20%; growth, % of control at 10 µM (RPMI-8226): 9.68%; growth, % of control at 10 µM (MDA-MB-435): -34.5%
3 | CCS/C(Nc1ccccc1)=C(\C#N)C(=O)N/N=C\c1ccco1 | 101 | 99.4 | 77.3 | 76.3 | 91.4 | 104 | 106 | 110 | 84.2 | 101 | 94.7 | 101 | 104 | 103 | 89.1 | 66.8 | 97.7 | 94.3 | 104 | 75.7 | growth, % of control at 10 µM (Malme-3M): 95.9%; growth, % of control at 10 µM (A549): 86.7%; growth, % of control at 10 µM (U-251): 94%; growth, % of control at 10 µM (UACC-257): 84.4%; growth, % of control at 10 µM (SK-MEL-28): 109%; growth, % of control at 10 µM (OVCAR-8): 92.1%; growth, % of control at 10 µM (SF-268): 98%; growth, % of control at 10 µM (HCT-15): 106%; growth, % of control at 10 µM (M14): 99.2%; growth, % of control at 10 µM (SF-295): 101%; growth, % of control at 10 µM (DU-145): 106%; growth, % of control at 10 µM (RPMI-8226): 103%; growth, % of control at 10 µM (MDA-MB-435): 105%
4 | CCS/C(Nc1ccccc1)=C(\C#N)C(=O)Nc1ccc(C)cc1 | 96.6 | 97 | 79.4 | 56.6 | 103 | 103 | 101 | 98.8 | 45.9 | 98.4 | 62.3 | 93.3 | 96.6 | 81.7 | 109 | 92.3 | 80.3 | 85.3 | 97.9 | 71.2 | growth, % of control at 10 µM (Malme-3M): 101%; growth, % of control at 10 µM (A549): 84.5%; growth, % of control at 10 µM (U-251): 96.6%; growth, % of control at 10 µM (UACC-257): 99.3%; growth, % of control at 10 µM (SK-MEL-28): 109%; growth, % of control at 10 µM (OVCAR-8): 96%; growth, % of control at 10 µM (SF-268): 86.8%; growth, % of control at 10 µM (HCT-15): 94.8%; growth, % of control at 10 µM (M14): 112%; growth, % of control at 10 µM (SF-295): 95.7%; growth, % of control at 10 µM (DU-145): 95.2%; growth, % of control at 10 µM (RPMI-8226): 86%; growth, % of control at 10 µM (MDA-MB-435): 102%
5 | CCS/C(Nc1ccccc1)=C(\C#N)C(=O)Nc1ccccc1 | 97.2 | 92.4 | 76.2 | 69.2 | 90.7 | 101 | 96.5 | 99.5 | 58.1 | 91.1 | 53 | 91.2 | 90 | 76.7 | 102 | 98.6 | 79.8 | 87.6 | 88.9 | 65.7 | growth, % of control at 10 µM (Malme-3M): 117%; growth, % of control at 10 µM (A549): 86.2%; growth, % of control at 10 µM (U-251): 92.6%; growth, % of control at 10 µM (UACC-257): 103%; growth, % of control at 10 µM (SK-MEL-28): 112%; growth, % of control at 10 µM (OVCAR-8): 94.2%; growth, % of control at 10 µM (SF-268): 91.2%; growth, % of control at 10 µM (HCT-15): 93.7%; growth, % of control at 10 µM (M14): 128%; growth, % of control at 10 µM (SF-295): 91.3%; growth, % of control at 10 µM (DU-145): 102%; growth, % of control at 10 µM (RPMI-8226): 79.2%; growth, % of control at 10 µM (MDA-MB-435): 110%
